Drawing on patent publication US8772343B2, “Chemical compounds” (Pfizer Limited, priority 2010, dated 2014), this text covers IC50 for 30 compounds.

The structures appear in SMILES notation. Counter-ions that a name gives are not always drawn. A value given as a limit tells only on which side of the number the result lay.

For this assay, the target named is T1, Nav1.7 (or SCN9A) channel (Homo sapiens, UniProt Q15858).
T1 construct: expressed in transfected cells
T1 sequence (Q15858 whole entry): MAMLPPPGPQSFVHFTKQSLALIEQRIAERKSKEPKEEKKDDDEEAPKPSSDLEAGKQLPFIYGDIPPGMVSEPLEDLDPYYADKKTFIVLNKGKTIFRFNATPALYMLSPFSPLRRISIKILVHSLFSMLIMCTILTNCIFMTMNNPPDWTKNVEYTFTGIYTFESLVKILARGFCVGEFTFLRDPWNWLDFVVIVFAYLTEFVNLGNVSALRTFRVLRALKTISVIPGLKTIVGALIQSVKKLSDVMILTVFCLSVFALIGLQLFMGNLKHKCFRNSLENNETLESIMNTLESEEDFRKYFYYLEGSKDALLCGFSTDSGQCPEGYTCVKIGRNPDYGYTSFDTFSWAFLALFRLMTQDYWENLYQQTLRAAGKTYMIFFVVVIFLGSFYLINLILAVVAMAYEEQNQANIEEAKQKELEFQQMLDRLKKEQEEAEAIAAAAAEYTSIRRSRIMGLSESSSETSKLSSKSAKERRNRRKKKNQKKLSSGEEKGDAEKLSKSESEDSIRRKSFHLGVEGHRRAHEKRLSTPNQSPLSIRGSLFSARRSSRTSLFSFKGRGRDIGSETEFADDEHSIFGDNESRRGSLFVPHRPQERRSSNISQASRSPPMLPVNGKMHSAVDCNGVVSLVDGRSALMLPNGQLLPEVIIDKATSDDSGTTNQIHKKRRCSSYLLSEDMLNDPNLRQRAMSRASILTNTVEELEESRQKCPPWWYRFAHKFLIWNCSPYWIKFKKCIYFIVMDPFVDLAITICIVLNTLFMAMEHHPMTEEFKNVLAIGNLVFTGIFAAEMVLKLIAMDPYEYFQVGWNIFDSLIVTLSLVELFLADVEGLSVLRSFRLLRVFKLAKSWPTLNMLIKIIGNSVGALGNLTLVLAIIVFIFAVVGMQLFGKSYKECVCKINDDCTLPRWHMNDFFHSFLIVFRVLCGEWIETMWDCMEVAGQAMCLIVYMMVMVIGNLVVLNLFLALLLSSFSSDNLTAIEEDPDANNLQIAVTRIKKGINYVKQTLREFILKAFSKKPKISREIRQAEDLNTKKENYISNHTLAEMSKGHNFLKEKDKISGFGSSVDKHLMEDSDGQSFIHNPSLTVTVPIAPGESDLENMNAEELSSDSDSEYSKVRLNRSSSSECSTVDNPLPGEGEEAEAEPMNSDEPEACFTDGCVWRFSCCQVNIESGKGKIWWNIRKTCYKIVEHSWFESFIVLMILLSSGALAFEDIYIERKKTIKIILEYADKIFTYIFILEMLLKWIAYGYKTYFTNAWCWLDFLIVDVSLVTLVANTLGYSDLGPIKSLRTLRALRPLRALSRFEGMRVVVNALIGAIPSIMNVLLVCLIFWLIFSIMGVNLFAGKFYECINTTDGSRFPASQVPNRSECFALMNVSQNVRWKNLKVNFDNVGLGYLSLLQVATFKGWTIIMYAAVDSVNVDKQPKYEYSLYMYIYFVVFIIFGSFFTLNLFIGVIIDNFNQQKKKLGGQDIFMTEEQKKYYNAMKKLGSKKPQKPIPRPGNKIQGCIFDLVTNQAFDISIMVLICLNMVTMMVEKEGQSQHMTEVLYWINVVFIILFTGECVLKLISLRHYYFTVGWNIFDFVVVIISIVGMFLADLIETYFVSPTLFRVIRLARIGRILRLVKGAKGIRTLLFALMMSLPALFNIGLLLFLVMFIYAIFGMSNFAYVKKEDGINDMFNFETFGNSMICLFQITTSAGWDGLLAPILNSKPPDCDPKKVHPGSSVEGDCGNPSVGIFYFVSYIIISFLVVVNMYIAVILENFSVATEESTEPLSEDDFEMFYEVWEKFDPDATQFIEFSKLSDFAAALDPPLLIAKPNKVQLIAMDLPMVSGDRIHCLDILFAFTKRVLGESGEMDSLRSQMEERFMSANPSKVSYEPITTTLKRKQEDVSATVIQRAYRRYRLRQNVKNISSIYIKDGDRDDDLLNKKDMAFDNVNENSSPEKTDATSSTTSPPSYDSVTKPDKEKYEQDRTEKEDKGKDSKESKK
As to the kind of experiment: Nav1.7 PatchXpress automated whole-cell electrophysiology in HEK cells expressing hSCN9A. The assay is classed as cell-based. The conditions noted are these: estimated IC50 from single point data, PatchXpress assay, held at V1/2 of inactivation, read-out: Nav1.7 EIC50. On the procedure:
The ability of the compounds of formula (I) to block the Nav1.7 (or SCN9A) channel were measured using the assay described below.
Human Embryonic Kidney (HEK) cells were transfected with an hSCN9A construct using lipofectamine reagent (Invitrogen), using standard techniques. Cells stably expressing the hSCN9A constructs were identified by their resistance to G-418 (400 μg/ml). Clones were screened for expression using the whole-cell voltage-clamp technique.
HEK cells stably transfected with hSCN9A were maintained in DMEM medium supplemented with 10% heat-inactivated fetal bovine serum and 400 μg/ml G-418 in an incubator at 37° C. with a humidified atmosphere of 10% CO2. For HTS, cells were harvested from flasks by trypsinization and replated in an appropriate multi-well plate (typically 96 or 384 wells/plate) such that confluence would be achieved within 24 hours of plating. For electrophysiological studies, cells were removed from the culture flask by brief trypsinization and re-plated at low density onto glass cover slips. Cells were typically used for electrophysiological experiments within 24 to 72 hours after plating.
Cover slips containing HEK cells expressing hSCN9A were placed in a bath on the stage of an inverted microscope and perfused (approximately 1 ml/minutes) with extracellular solution of the following composition: 138 mM NaCl, 2 mM CaCl2, 5.4 mM KCl, 1 mM MgCl2, 10 mM glucose, and 10 mM HEPES, pH 7.4, with NaOH. […] The osmolarity of the extracellular and intracellular solutions was 300 mOsm/kg and 295 mOsm/kg, respectively. All recordings were made at room temperature (22-24° C.) using AXOPATCH 200B amplifiers and PCLAMP software (Axon Instruments, Burlingame, Calif.).
hSCN9A currents in HEK cells were measured using the whole-cell configuration of the patch-clamp technique (Hamill et al., 1981). Uncompensated series resistance was typically 2 to 5 mega ohms and >85% series resistance compensation was routinely achieved. As a result, voltage errors were negligible and no correction was applied. Current records were acquired at 20 to 50 KHz and filtered at 5 to 10 KHz.
HEK cells stably transfected with hSCN9A were viewed under Hoffman contrast optics and placed in front of an array of flow pipes emitting either control or compound-containing extracellular solutions. All compounds were dissolved in dimethyl sulfoxide to make 10 mM stock solutions, which were then diluted into extracellular solution to attain the final concentrations desired. […] The voltage-dependence of inactivation was determined by applying a series of depolarizing prepulses (8 sec long in 10 mV increments) from a negative holding potential. The voltage was then immediately stepped to 0 mV to assess the magnitude of the sodium current. Currents elicited at 0 mV were plotted as a function of prepulse potential to allow estimation of the voltage at which 50% of the channels were inactivated (midpoint of inactivation or V1/2). Compounds were tested for their ability to inhibit hSCN9A sodium channels by activating the channel with a 20 msec voltage step to 0 mV following an 8 second conditioning prepulse to the empirically determined V1/2. Compound effect (% inhibition) was determined by difference in current amplitude before and after application of test compounds. For ease of comparison, “estimated IC-50” (EIC50) values were calculated from single point electrophysiology data by the following equation, (tested concentration, uM)×(100-% inhibition/% inhibition). Inhibition values<20% and >80% were excluded from the calculation.
Electrophysiological assays were conducted with PatchXpress 7000 hardware and associated software (Molecular Devices Corp). All assay buffers and solutions were identical to those used in conventional whole-cell voltage clamp experiments described above. hSCN9A cells were grown as above to 50%-80% confluency and harvested by trypsinization. […]
In the case of `COc1cc(Cl)ccc1Oc1ccc(C(=O)NS(C)(=O)=O)cc1-c1cccnc1OC` [Example 1, 4-(4-chloro-2-methoxyphenoxy)-3-(2-methoxypyridin-3-yl)-N-(methylsulfonyl)benzamide diethylamine salt], the IC50 is 2700 nM.

For `COc1ncccc1-c1cc(C(=O)NS(C)(=O)=O)ccc1Oc1ccc(OCC(C)C)nc1` [Example 2, 4-[(6-isobutoxypyridin-3-yl)oxy]-3-(2-methoxypyridin-3-yl)-N-(methylsulfonyl)benzamide diethylamine salt], the IC50 is 220 nM. For `COc1cccnc1-c1cc(C(=O)NS(C)(=O)=O)ccc1Oc1ccc(Cl)cc1` [Example 3, 4-(4-chlorophenoxy)-3-(3-methoxypyridin-2-yl)-N-(methylsulfonyl)benzamide], the IC50 was 990 nM. With `COc1cc(Cl)ccc1Oc1cc(F)c(C(=O)NS(C)(=O)=O)cc1-c1cccnc1OC` [Example 4, 4-(4-chloro-2-methoxyphenoxy)-2-fluoro-5-(2-methoxypyridin-3-yl)-N-(methylsulfonyl)benzamide] the figure was 4500 nM.

With `COc1ncccc1-c1cc(C(=O)NS(C)(=O)=O)ccc1Oc1ccccc1` [Example 5, 3-(2-methoxypyridin-3-yl)-N-(methylsulfonyl)-4-phenoxybenzamide], the IC50 was 900 nM. With `COc1ncccc1-c1cc(C(=O)NS(=O)(=O)C2CC2)ccc1Oc1ccccc1` [Example 6, N-(cyclopropylsulfonyl)-3-(2-methoxypyridin-3-yl)-4-phenoxybenzamide], the IC50 was 1300 nM. Turning to `COc1ncccc1-c1cc(C(=O)NS(C)(=O)=O)ccc1Oc1cnc(OC(C)C)c(Cl)c1` [Example 7, 4-[(5-Chloro-6-isopropoxypyridin-3-yl)oxy]-3-(2-methoxypyridin-3-yl)-N-(methylsulfonyl)benzamide], the IC50 was 66 nM. Consider `CCOc1ncccc1-c1cc(C(=O)NS(C)(=O)=O)ccc1Oc1ccc(Cl)cc1` [Example 8, 4-(4-Chlorophenoxy)-3-(2-ethoxypyridin-3-yl)-N-(methylsulfonyl)benzamide], for which the IC50 was 49 nM. For the compound `CS(=O)(=O)NC(=O)c1ccc(Oc2ccc(Cl)cc2)c(-c2ccc(F)cc2)c1` [Example 9, 6-(4-Chlorophenoxy)-4′-fluoro-N-(methylsulfonyl)biphenyl-3-carboxamide], the IC50 was 110 nM. Turning to `CS(=O)(=O)NC(=O)c1ccc(Oc2ccc(Cl)cc2)c(-c2cc[nH]n2)c1` [Example 10, 4-(4-Chlorophenoxy)-N-(methylsulfonyl)-3-(1H-pyrazol-3-yl)benzamide], the IC50 was 940 nM. The value for `CCOc1ccc(-c2cc(C(=O)NS(C)(=O)=O)ccc2Oc2ccc(Cl)cc2)cc1` [Example 12, 6-(4-chlorophenoxy)-4′-ethoxy-N-(methylsulfonyl)-biphenyl-3-carboxamide] was 3500 nM; that for `Cc1n[nH]c(C)c1-c1cc(C(=O)NS(C)(=O)=O)ccc1Oc1ccc(Cl)cc1` [Example 14, 4-(4-chlorophenoxy)-3-(3,5-dimethyl-1H-pyrazol-4-yl)-N-(methylsulfonyl)benzamide] was greater than 3000 nM. For `COc1ccccc1-c1cc(C(=O)NS(C)(=O)=O)ccc1Oc1ccc(Cl)cc1` [Example 15, 6-(4-chlorophenoxy)-2′-methoxy-N-(methylsulfonyl)-biphenyl-3-carboxamide], the IC50 was 180 nM. Take `COc1ccc(-c2cc(C(=O)NS(C)(=O)=O)ccc2Oc2ccc(Cl)cc2)cn1` [Example 16, 4-(4-chlorophenoxy)-3-(6-methoxypyridin-3-yl)-N-(methylsulfonyl)benzamide]: the IC50 was 910 nM. With `CS(=O)(=O)NC(=O)c1ccc(Oc2ccc(Cl)cc2)c(-c2ccccc2F)c1` [Example 18, 6-(4-chlorophenoxy)-2′-fluoro-N-(methylsulfonyl)-biphenyl-3-carboxamide], the IC50 is 570 nM.

Take `CCOc1cccc(-c2cc(C(=O)NS(C)(=O)=O)ccc2Oc2ccc(Cl)cc2)c1` [Example 20, 6-(4-chlorophenoxy)-3′-ethoxy-N-(methylsulfonyl)-biphenyl-3-carboxamide]: the IC50 was 820 nM. Consider `CS(=O)(=O)NC(=O)c1ccc(Oc2ccc(Cl)cc2)c(-c2ccncc2)c1` [Example 21, 4-(4-chlorophenoxy)-N-(methylsulfonyl)-3-pyridin-4-ylbenzamide], for which the IC50 was 4600 nM. The value for `CS(=O)(=O)NC(=O)c1ccc(Oc2ccc(Cl)cc2)c(-c2cncnc2)c1` [Example 23, 4-(4-chlorophenoxy)-N-(methylsulfonyl)-3-pyrimidin-5-ylbenzamide] was 2800 nM; that for `CS(=O)(=O)NC(=O)c1ccc(Oc2ccc(Cl)cc2)c(-c2ccccc2OC(F)(F)F)c1` [Example 24, 6-(4-chlorophenoxy)-N-(methylsulfonyl)-2′-(trifluoromethoxy)biphenyl-3-carboxamide] was 500 nM; that for `Cn1nccc1-c1cc(C(=O)NS(C)(=O)=O)ccc1Oc1ccc(Cl)cc1` [Example 27, 4-(4-chlorophenoxy)-3-(1-methyl-1H-pyrazol-5-yl)-N-(methylsulfonyl)benzamide] was greater than 3000 nM.

With `COc1cccc(-c2cc(C(=O)NS(C)(=O)=O)ccc2Oc2ccc(Cl)cc2)c1` [Example 29, 6-(4-chlorophenoxy)-3′-methoxy-N-(methylsulfonyl)-biphenyl-3-carboxamide], the IC50 was 570 nM.

Consider `CS(=O)(=O)NC(=O)c1ccc(Oc2ccc(Cl)cc2)c(-c2ccccc2Cl)c1` [Example 31, 2′-chloro-6-(4-chlorophenoxy)-N-(methylsulfonyl)-biphenyl-3-carboxamide], for which the IC50 is 270 nM.

For `CCOc1ccccc1-c1cc(C(=O)NS(C)(=O)=O)ccc1Oc1ccc(Cl)cc1` [Example 32, 6-(4-chlorophenoxy)-2′-ethoxy-N-(methylsulfonyl)-biphenyl-3-carboxamide], the IC50 is 120 nM. As to `CS(=O)(=O)NC(=O)c1ccc(Oc2ccc(Cl)cc2)c(-c2ccccc2C#N)c1` [Example 33, 6-(4-chlorophenoxy)-2′-cyano-N-(methylsulfonyl)-biphenyl-3-carboxamide], the IC50 was 290 nM. The value for `Cc1cc(-c2cc(C(=O)NS(C)(=O)=O)ccc2Oc2ccc(Cl)cc2)ccn1` [Example 34, 4-(4-chlorophenoxy)-3-(2-methylpyridin-4-yl)-N-(methylsulfonyl)benzamide] was 8600 nM; that for `CS(=O)(=O)NC(=O)c1ccc(Oc2ccc(Cl)cc2)c(-c2ccccc2C(F)(F)F)c1` [Example 35, 6-(4-chlorophenoxy)-N-(methylsulfonyl)-2′-(trifluoromethyl)biphenyl-3-carboxamide] was 8000 nM. The value for `COc1ncc(-c2cc(C(=O)NS(C)(=O)=O)ccc2Oc2ccc(Cl)cc2)cc1F` [Example 36, 4-(4-chlorophenoxy)-3-(5-fluoro-6-methoxypyridin-3-yl)-N-(methylsulfonyl)benzamide] was 3900 nM; that for `CS(=O)(=O)NC(=O)c1ccc(Oc2ccc(Cl)cc2)c(-c2ccc(Cl)cn2)c1` [Example 37, 4-(4-chlorophenoxy)-3-(5-chloropyridin-2-yl)-N-(methylsulfonyl)benzamide] was 340 nM; that for `Cc1ccc(-c2cc(C(=O)NS(C)(=O)=O)ccc2Oc2ccc(Cl)cc2)cn1` [Example 38, 4-(4-chlorophenoxy)-3-(6-methylpyridin-3-yl)-N-(methylsulfonyl)benzamide] was greater than 3000 nM. The value for `CS(=O)(=O)NC(=O)c1ccc(Oc2ccc(Cl)cc2)c(-c2ccc(C#N)nc2)c1` [Example 39, 4-(4-chlorophenoxy)-3-(6-cyanopyridin-3-yl)-N-(methylsulfonyl)benzamide] was 1100 nM.
